Source: ChEMBL document CHEMBL4311993, “Structure-activity relationship study of NPP1 inhibitors based on uracil-N1-(methoxy)ethyl-β-phosphate scaffold” (Eur J Med Chem, 2019)
Calls of active or inactive are those of the source. The calls are words filed in the database; no cut-off is given here.

How the values were obtained:
[1] = biological target: P2Y purinoceptor 4 (Homo sapiens) (UniProt P51582); test: Agonist activity at human P2Y4 receptor expressed in AD293 cells assessed as inositol-1-phosphate accumulation at 0.1 to 100 uM; format: functional, cell-based
[2] = Cytotoxicity against human primary chondrocytes at 100 uM after 24 hrs by XTT assay
[3] = biological target: T1, Ectonucleotide pyrophosphatase/phosphodiesterase family member 3 (Homo sapiens) (UniProt O14638); test: Inhibition of human NPP3 expressed in COS7 cell membranes at 100 uM using pNP-TMP as substrate preincubated for 3 mins followed by substrate addition and measured after 15 mins relative to control
T1 sequence (whole entry): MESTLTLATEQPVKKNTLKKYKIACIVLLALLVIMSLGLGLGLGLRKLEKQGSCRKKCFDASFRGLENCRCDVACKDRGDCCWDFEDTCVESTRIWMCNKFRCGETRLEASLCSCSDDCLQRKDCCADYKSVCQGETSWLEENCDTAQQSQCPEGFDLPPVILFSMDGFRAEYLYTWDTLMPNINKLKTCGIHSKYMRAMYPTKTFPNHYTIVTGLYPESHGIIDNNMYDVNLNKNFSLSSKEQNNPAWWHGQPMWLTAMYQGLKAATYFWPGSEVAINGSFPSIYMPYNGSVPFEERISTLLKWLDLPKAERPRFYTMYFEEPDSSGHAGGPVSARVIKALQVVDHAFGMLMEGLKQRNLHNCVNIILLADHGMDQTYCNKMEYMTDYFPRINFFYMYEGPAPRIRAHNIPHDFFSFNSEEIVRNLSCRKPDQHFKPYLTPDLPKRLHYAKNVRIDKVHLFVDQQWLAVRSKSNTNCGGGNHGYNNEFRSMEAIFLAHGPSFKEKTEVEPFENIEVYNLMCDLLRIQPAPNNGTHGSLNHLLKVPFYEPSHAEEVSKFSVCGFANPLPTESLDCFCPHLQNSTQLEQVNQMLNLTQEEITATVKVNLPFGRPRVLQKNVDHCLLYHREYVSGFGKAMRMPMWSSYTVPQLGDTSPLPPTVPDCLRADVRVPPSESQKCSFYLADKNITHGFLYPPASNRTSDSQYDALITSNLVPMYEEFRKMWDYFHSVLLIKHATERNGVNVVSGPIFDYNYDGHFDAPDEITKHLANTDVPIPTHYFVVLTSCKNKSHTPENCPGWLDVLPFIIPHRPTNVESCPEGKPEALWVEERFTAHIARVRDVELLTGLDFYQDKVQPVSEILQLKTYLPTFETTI

[4] = biological target: P2Y purinoceptor 6 (Homo sapiens) (UniProt Q15077); test: Antagonist activity at human P2Y6 receptor expressed in AD293 cells assessed as inhibition of UDP-induced inositol-1-phosphate accumulation at 0.1 to 100 uM; format: functional, cell-based
[5] = biological target: P2Y purinoceptor 6 (Homo sapiens) (UniProt Q15077); test: Agonist activity at human P2Y6 receptor expressed in AD293 cells assessed as inositol-1-phosphate accumulation at 100 uM; format: functional, cell-based
[6] = biological target: P2Y purinoceptor 2 (Homo sapiens) (UniProt P41231); test: Antagonist activity at human P2Y2 receptor expressed in AD293 cells assessed as inhibition of UTP-induced inositol-1-phosphate accumulation at 100 uM; format: functional, cell-based
[7] = biological target: P2Y purinoceptor 2 (Homo sapiens) (UniProt P41231); test: Agonist activity at human P2Y2 receptor expressed in AD293 cells assessed as inositol-1-phosphate accumulation at 100 uM; format: functional, cell-based
[8] = biological target: T2, Ectonucleotide pyrophosphatase/phosphodiesterase family member 1 (Homo sapiens) (UniProt P22413); test: Inhibition of human NPP1 expressed in COS7 cell membranes at 100 uM using pNP-TMP as substrate preincubated for 3 mins followed by substrate addition and measured after 15 mins relative to control
T2 sequence (whole entry): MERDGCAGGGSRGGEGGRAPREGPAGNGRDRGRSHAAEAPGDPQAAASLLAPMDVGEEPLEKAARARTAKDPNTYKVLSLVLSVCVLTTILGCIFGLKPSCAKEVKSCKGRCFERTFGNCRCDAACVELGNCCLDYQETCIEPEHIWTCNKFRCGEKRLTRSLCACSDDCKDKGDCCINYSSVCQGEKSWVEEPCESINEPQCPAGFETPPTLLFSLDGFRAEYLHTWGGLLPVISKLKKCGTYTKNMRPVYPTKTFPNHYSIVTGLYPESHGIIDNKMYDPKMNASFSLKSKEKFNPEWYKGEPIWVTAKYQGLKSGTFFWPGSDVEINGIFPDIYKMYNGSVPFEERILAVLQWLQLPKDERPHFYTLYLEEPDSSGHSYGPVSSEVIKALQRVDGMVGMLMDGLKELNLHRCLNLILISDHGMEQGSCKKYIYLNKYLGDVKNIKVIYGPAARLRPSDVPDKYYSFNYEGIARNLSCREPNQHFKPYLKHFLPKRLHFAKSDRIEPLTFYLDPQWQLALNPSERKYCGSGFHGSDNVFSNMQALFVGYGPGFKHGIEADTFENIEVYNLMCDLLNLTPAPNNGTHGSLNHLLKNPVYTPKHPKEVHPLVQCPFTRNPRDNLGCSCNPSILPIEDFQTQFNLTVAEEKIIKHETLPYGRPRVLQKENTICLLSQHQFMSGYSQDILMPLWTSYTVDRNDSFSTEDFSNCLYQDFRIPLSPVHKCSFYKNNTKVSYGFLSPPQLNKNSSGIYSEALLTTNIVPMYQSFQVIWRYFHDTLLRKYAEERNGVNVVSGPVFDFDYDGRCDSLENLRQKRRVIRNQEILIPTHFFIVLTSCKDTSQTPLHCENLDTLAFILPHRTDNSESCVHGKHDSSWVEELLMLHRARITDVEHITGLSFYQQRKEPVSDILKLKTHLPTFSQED

[9] = species on record: Homo sapiens; test: Inhibition of alkaline phosphatase in human primary chondrocyte at 100 uM using p-nitrophenyl phosphate as substrate after 30 mins by […] relative to control
[10] = biological target: T3, Ectonucleotide pyrophosphatase/phosphodiesterase family member 1 (Homo sapiens, UniProt P22413); test: Inhibition of human NPP1 expressed in COS7 cell membranes using pNP-TMP as substrate preincubated for 3 mins followed by substrate addition and measured after 15 mins by Dixon plot analysis
T3 sequence (P22413 whole entry): T2 sequence (whole entry)

[11] = biological target: P2Y purinoceptor 4 (Homo sapiens) (UniProt P51582); test: Antagonist activity at human P2Y4 receptor expressed in AD293 cells assessed as inhibition of UTP-induced inositol-1-phosphate accumulation at 0.1 to 100 uM; format: functional, cell-based
[12] = biological target: T3, Ectonucleotide pyrophosphatase/phosphodiesterase family member 1; test: Inhibition of full-length human NPP-1 expressed in baculovirus infected Sf9 cells using p-Nph5-TMP as substrate after 60 mins by colorimetric assay

Chain of P2Y purinoceptor 4 (Homo sapiens) (P51582 whole entry): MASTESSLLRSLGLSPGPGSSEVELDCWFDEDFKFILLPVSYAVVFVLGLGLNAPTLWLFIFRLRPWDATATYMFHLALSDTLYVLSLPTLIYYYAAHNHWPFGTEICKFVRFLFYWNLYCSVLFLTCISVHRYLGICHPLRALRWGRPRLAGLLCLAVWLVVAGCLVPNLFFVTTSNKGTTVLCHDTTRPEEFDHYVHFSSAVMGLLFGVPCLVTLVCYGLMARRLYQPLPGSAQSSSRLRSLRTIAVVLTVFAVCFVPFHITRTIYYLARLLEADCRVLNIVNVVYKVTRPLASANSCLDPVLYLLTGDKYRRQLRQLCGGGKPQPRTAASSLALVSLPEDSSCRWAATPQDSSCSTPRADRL
Chain of P2Y purinoceptor 6 (Homo sapiens) (Q15077 whole entry): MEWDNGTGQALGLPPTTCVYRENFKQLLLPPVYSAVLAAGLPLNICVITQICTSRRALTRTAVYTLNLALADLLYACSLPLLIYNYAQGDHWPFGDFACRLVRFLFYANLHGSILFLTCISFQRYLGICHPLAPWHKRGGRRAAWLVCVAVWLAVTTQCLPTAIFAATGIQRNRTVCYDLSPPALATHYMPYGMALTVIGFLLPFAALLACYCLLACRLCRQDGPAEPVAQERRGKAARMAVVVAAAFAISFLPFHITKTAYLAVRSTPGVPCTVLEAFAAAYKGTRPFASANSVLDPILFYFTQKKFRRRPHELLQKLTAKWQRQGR
Chain of P2Y purinoceptor 2 (Homo sapiens) (P41231 whole entry): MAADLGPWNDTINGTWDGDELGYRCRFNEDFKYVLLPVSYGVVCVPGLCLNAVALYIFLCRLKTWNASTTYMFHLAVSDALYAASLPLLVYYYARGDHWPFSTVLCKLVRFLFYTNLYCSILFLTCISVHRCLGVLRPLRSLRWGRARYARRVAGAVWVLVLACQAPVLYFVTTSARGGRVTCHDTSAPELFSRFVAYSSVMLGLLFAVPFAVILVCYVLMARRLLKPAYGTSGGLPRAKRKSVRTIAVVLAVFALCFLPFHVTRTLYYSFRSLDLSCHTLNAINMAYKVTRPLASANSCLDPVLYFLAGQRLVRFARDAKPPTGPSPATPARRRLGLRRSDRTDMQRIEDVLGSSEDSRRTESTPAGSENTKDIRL

Row | SMILES | Activity [1] | Activity [2] | inhibition [3] [%] | inhibition [4] | Activity [5] | inhibition [6] | Activity [7] | inhibition [8] [%] | inhibition [9] [%] | Ki [10] [nM] | inhibition [11] | Ki [12] [nM]
1 | O=c1ccn(COCCOP(=S)(S)OP(=O)(O)O)c(=O)[nH]1 (stereo not drawn) | inactive | Non-Toxic | 30 | inactive | Active | inactive | inactive | 96 to 98 | < 10 | 2830 | inactive | –
2 | O=c1ccn(COCCOP(=S)(S)OP(=O)(O)OP(=O)(O)O)c(=O)[nH]1 (stereo not drawn) | inactive | Non-Toxic | 31 | inactive | Active | inactive | inactive | 96 to 98 | < 10 | 1280 | inactive | –
3 | Nc1ncnc2c1ncn2COCCOP(=O)(O)CP(=O)(O)O | – | – | – | – | – | – | – | – | – | – | – | 16300
